Reference: patent US8680052B1, “Methods of treating, reducing the incidence of, and/or preventing ischemic events” (The Medicines Company, priority 2013, dated 2014)
Like-named read-outs stand apart in the source and are kept apart here.

Test system: patients with acute coronary syndromes undergoing PCI
Settings: for Angiographic complications (site reported): Abrupt vessel closure / Angiographic complications (site reported): Acute stent thrombosis / Angiographic complications (site reported): Need for urgent CABG / Angiographic complications (site reported): New thrombus or suspected thrombus / Angiographic complications (site reported): Threatened abrupt closure / Angiographic complications (site reported): Unsuccessful procedure: index PCI
[1] = 48-hour, MITT Without STEMI, exploratory

## COC(=O)[C@H](c1ccccc1Cl)N1CCc2sccc2C1 [Clopidogrel, clopidogrel, reference compound]
48-hour, MITT Without STEMI
  All-cause mortality: 5 (0.1)
  IDR: 23 (0.6)
  MI: 256 (6.6)
  Mortality/MI/IDR (primary endpoint): 276 (7.1)
  Q-wave MI: 10 (0.3)
  Stent thrombosis: 11 (0.3)
  Stroke: 7 (0.2)
[1]
  Mortality/Q-wave MI/IDR: 34 (0.9)
  Mortality/Q-wave MI/Stent thrombosis: 23 (0.6)
48 hours, ITT
  All-cause mortality: 11 (0.2) no. (%)
  IDR: 31 (0.7) no. (%)
  MI: 265 (6.0) no. (%)
  Mortality/MI/IDR: 297 (6.7) no. (%)
  Mortality/Q-wave MI/IDR: 48 (1.1) no. (%)
  Mortality/Q-wave MI/Stent thrombosis: 33 (0.7) no. (%)
  Q-wave MI: 10 (0.2) no. (%)
  Stent thrombosis: 15 (0.3) no. (%)
  Stroke: 8 (0.2) no. (%)
48 hours, ITT With STEMI
  All-cause mortality: 5 (1.0) no. (%)
  IDR: 8 (1.6) no. (%)
  MI: 9 (1.8) no. (%)
  Mortality/MI/IDR: 20 (3.9) no. (%)
  Mortality/Q-wave MI/IDR: 13 (2.6) no. (%)
  Mortality/Q-wave MI/Stent thrombosis: 9 (1.8) no. (%)
  Q-wave MI: 0 (0.0) no. (%)
  Stent thrombosis: 4 (0.8) no. (%)
  Stroke: 1 (0.2) no. (%)
48 hours, ITT Without STEMI
  All-cause mortality: 6 (0.2) no. (%)
  IDR: 23 (0.6) no. (%)
  MI: 256 (6.5) no. (%)
  Mortality/MI/IDR: 277 (7.1) no. (%)
  Mortality/Q-wave MI/IDR: 35 (0.9) no. (%)
  Mortality/Q-wave MI/Stent thrombosis: 24 (0.6) no. (%)
  Q-wave MI: 10 (0.3) no. (%)
  Stent thrombosis: 11 (0.3) no. (%)
  Stroke: 7 (0.2) no. (%)
48 hours, MITT
  All-cause mortality: 9 (0.2) no. (%)
  IDR: 30 (0.7) no. (%)
  MI: 264 (6.1) no. (%)
  Mortality/MI/IDR: 293 (6.8) no. (%)
  Mortality/Q-wave MI/IDR: 45 (1.0) no. (%)
  Mortality/Q-wave MI/Stent thrombosis: 31 (0.7) no. (%)
  Q-wave MI: 10 (0.2) no. (%)
  Stent thrombosis: 15 (0.3) no. (%)
  Stroke: 7 (0.2) no. (%)
48 hours, MITT With STEMI
  All-cause mortality: 4 (0.9) no. (%)
  IDR: 7 (1.6) no. (%)
  MI: 8 (1.8) no. (%)
  Mortality/MI/IDR: 17 (3.8) no. (%)
  Mortality/Q-wave MI/IDR: 11 (2.5) no. (%)
  Mortality/Q-wave MI/Stent thrombosis: 8 (1.8) no. (%)
  Q-wave MI: 0 (0.0) no. (%)
  Stent thrombosis: 4 (0.9) no. (%)
  Stroke: 0 (0.0) no. (%)
48 hours, MITT Without STEMI
  All-cause mortality: 5 (0.1) no. (%)
  IDR: 23 (0.6) no. (%)
  MI: 256 (6.6) no. (%)
  Mortality/MI/IDR (Prespecified primary endpoint): 276 (7.1) no. (%)
  Mortality/Q-wave MI/IDR: 34 (0.9) no. (%)
  Mortality/Q-wave MI/Stent thrombosis: 23 (0.6) no. (%)
  Q-wave MI: 10 (0.3) no. (%)
  Stent thrombosis: 11 (0.3) no. (%)
  Stroke: 7 (0.2) no. (%)
  primary composite of all-cause mortality, MI, or ischemia-driven revascularization: 7.1%
48 hours, Safety population
  All-cause mortality: 9 (0.2) no. (%)
  IDR: 30 (0.7) no. (%)
  MI: 265 (6.1) no. (%)
  Mortality/MI/IDR: 294 (6.7) no. (%)
  Mortality/Q-wave MI/IDR: 45 (1.0) no. (%)
  Mortality/Q-wave MI/Stent thrombosis: 31 (0.7) no. (%)
  Q-wave MI: 10 (0.2) no. (%)
  Stent thrombosis: 15 (0.3) no. (%)
  Stroke: 7 (0.2) no. (%)
30 days, ITT
  All-cause mortality: 47 (1.1) no. (%)
  IDR: 69 (1.6) no. (%)
  MI: 293 (6.7) no. (%)
  Mortality/MI/IDR: 373 (8.5) no. (%)
  Mortality/Q-wave MI/IDR: 119 (2.7) no. (%)
  Mortality/Q-wave MI/Stent thrombosis: 82 (1.9) no. (%)
  Q-wave MI: 15 (0.3) no. (%)
  Stent thrombosis: 30 (0.7) no. (%)
30 days, ITT With STEMI
  All-cause mortality: 16 (3.2) no. (%)
  IDR: 15 (3.0) no. (%)
  MI: 17 (3.4) no. (%)
  Mortality/MI/IDR: 41 (8.2) no. (%)
  Mortality/Q-wave MI/IDR: 31 (6.2) no. (%)
  Mortality/Q-wave MI/Stent thrombosis: 26 (5.2) no. (%)
  Q-wave MI: 0 (0.0) no. (%)
  Stent thrombosis: 10 (2.0) no. (%)
30 days, ITT Without STEMI
  All-cause mortality: 31 (0.8) no. (%)
  IDR: 54 (1.4) no. (%)
  MI: 276 (7.1) no. (%)
  Mortality/MI/IDR: 332 (8.6) no. (%)
  Mortality/Q-wave MI/IDR: 88 (2.3) no. (%)
  Mortality/Q-wave MI/Stent thrombosis: 56 (1.4) no. (%)
  Q-wave MI: 15 (0.4) no. (%)
  Stent thrombosis: 20 (0.5) no. (%)
30 days, MITT
  All-cause mortality: 38 (0.9) no. (%)
  IDR: 66 (1.5) no. (%)
  MI: 292 (6.8) no. (%)
  Mortality/MI/IDR: 360 (8.4) no. (%)
  Mortality/Q-wave MI/IDR: 107 (2.5) no. (%)
  Mortality/Q-wave MI/Stent thrombosis: 73 (1.7) no. (%)
  Q-wave MI: 15 (0.4) no. (%)
  Stent thrombosis: 30 (0.7) no. (%)
30 days, MITT With STEMI
  All-cause mortality: 11 (2.5) no. (%)
  IDR: 14 (3.2) no. (%)
  MI: 16 (3.6) no. (%)
  Mortality/MI/IDR: 34 (7.7) no. (%)
  Mortality/Q-wave MI/IDR: 25 (5.6) no. (%)
  Mortality/Q-wave MI/Stent thrombosis: 21 (4.7) no. (%)
  Q-wave MI: 0 (0.0) no. (%)
  Stent thrombosis: 10 (2.3) no. (%)
30 days, MITT Without STEMI
  All-cause mortality: 27 (0.7) no. (%)
  IDR: 52 (1.4) no. (%)
  MI: 276 (7.2) no. (%)
  Mortality/MI/IDR: 326 (8.5) no. (%)
  Mortality/Q-wave MI/IDR: 82 (2.1) no. (%)
  Mortality/Q-wave MI/Stent thrombosis: 52 (1.4) no. (%)
  Q-wave MI: 15 (0.4) no. (%)
  Stent thrombosis: 20 (0.5) no. (%)
30 days, Safety population
  All-cause mortality: 41 (0.9) no. (%)
  IDR: 67 (1.6) no. (%)
  MI: 293 (6.8) no. (%)
  Mortality/MI/IDR: 365 (8.5) no. (%)
  Mortality/Q-wave MI/IDR: 111 (2.6) no. (%)
  Mortality/Q-wave MI/Stent thrombosis: 76 (1.8) no. (%)
  Q-wave MI: 15 (0.3) no. (%)
  Stent thrombosis: 30 (0.7) no. (%)
ITT
  Angiographic complications (site reported): Abrupt vessel closure: 22 (0.5)
  Angiographic complications (site reported): Acute stent thrombosis: 5 (0.1)
  Angiographic complications (site reported): Need for urgent CABG: 7 (0.2)
  Angiographic complications (site reported): New thrombus or suspected thrombus: 23 (0.5)
  Angiographic complications (site reported): Threatened abrupt closure: 12 (0.3)
  Angiographic complications (site reported): Unsuccessful procedure: 103 (2.4)
ITT With STEMI
  Angiographic complications (site reported): Abrupt vessel closure: 3 (0.7)
  Angiographic complications (site reported): Acute stent thrombosis: 0 (0.0)
  Angiographic complications (site reported): Need for urgent CABG: 0 (0.0)
  Angiographic complications (site reported): New thrombus or suspected thrombus: 7 (1.5)
  Angiographic complications (site reported): Threatened abrupt closure: 2 (0.4)
  Angiographic complications (site reported): Unsuccessful procedure: 11 (2.4)
ITT Without STEMI
  Angiographic complications (site reported): Abrupt vessel closure: 19 (0.5)
  Angiographic complications (site reported): Acute stent thrombosis: 5 (0.1)
  Angiographic complications (site reported): Need for urgent CABG: 7 (0.2)
  Angiographic complications (site reported): New thrombus or suspected thrombus: 16 (0.4)
  Angiographic complications (site reported): Threatened abrupt closure: 10 (0.3)
  Angiographic complications (site reported): Unsuccessful procedure: 92 (2.4)
MITT
  Angiographic complications (site reported): Abrupt vessel closure: 22 (0.5)
  Angiographic complications (site reported): Acute stent thrombosis: 5 (0.1)
  Angiographic complications (site reported): Need for urgent CABG: 6 (0.1)
  Angiographic complications (site reported): New thrombus or suspected thrombus: 22 (0.5)
  Angiographic complications (site reported): Threatened abrupt closure: 12 (0.3)
  Angiographic complications (site reported): Unsuccessful procedure: 103 (2.4)
MITT NSTEMI
  Angiographic complications (site reported): Abrupt vessel closure: 19 (0.5)
  Angiographic complications (site reported): Acute stent thrombosis: 5 (0.1)
  Angiographic complications (site reported): Need for urgent CABG: 6 (0.2)
  Angiographic complications (site reported): New thrombus or suspected thrombus: 16 (0.4)
  Angiographic complications (site reported): Threatened abrupt closure: 10 (0.3)
  Angiographic complications (site reported): Unsuccessful procedure: 92 (2.4)
Safety population
  Angiographic complications (site reported): Abrupt vessel closure: 22 (0.5)
  Angiographic complications (site reported): Acute stent thrombosis: 5 (0.1)
  Angiographic complications (site reported): Need for urgent CABG: 6 (0.1)
  Angiographic complications (site reported): New thrombus or suspected thrombus: 22 (0.5)
  Angiographic complications (site reported): Threatened abrupt closure: 12 (0.3)
  Angiographic complications (site reported): Unsuccessful procedure: 103 (2.4)
